# Experimental data reported in US10189841B2, “Purinones as ubiquitin-specific protease 1 inhibitors” (Forma Therapeutics, Inc., priority 2015, dated 2019).
# pIC50: −log10 of the molar value.
# Molecular target: USP1 (construct USP1 (I-785, GG670, 671AA)/UAF1 (I-677)-Flag) (Homo sapiens (Human), UniProt O94782, G670A/G671A)
# Assay: Ubiquitin-Rhodamine 110 assay for USP1 activity
# Type: biochemical
# Conditions: USP1/UAF1 25 pM, Ub-Rh110 25 nM, 30 min preincubation
# Summary of the method: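 Ub-Rh110 (25 nM, ≪Km) cleavage read at ex 485/em 535 in Tris pH 8.0, CaCl2, GSH, Prionex, Triton X-100. The screen used 10 µM compound, 100 pM USP1/UAF1 and 45 min at RT.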
# Chain of USP1 (construct USP1 (I-785, GG670, 671AA)/UAF1 (I-677)-Flag) (O94782 whole entry G670A/G671A): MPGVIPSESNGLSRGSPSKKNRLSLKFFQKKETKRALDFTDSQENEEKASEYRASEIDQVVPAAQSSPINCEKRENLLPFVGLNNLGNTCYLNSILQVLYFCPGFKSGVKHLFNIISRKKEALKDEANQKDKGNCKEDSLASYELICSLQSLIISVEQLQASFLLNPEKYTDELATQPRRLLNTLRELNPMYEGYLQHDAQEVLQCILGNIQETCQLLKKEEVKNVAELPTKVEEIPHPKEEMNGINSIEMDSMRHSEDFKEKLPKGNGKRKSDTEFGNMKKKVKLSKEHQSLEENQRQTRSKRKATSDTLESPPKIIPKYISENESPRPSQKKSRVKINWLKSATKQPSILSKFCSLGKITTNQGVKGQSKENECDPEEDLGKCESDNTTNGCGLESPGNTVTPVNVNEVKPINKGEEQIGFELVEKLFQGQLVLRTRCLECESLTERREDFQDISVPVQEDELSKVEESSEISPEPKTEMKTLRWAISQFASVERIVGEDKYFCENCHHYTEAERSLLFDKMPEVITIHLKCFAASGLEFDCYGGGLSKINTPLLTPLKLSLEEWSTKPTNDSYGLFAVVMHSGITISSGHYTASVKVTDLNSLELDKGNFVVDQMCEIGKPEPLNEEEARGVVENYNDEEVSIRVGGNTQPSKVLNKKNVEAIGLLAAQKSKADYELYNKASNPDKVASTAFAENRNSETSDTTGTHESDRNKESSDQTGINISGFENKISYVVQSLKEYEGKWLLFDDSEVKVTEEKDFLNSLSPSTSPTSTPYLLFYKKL
# Chain of USP1 (construct USP1 (I-785, GG670, 671AA)/UAF1 (I-677)-Flag) (Q8TAF3 whole entry partner): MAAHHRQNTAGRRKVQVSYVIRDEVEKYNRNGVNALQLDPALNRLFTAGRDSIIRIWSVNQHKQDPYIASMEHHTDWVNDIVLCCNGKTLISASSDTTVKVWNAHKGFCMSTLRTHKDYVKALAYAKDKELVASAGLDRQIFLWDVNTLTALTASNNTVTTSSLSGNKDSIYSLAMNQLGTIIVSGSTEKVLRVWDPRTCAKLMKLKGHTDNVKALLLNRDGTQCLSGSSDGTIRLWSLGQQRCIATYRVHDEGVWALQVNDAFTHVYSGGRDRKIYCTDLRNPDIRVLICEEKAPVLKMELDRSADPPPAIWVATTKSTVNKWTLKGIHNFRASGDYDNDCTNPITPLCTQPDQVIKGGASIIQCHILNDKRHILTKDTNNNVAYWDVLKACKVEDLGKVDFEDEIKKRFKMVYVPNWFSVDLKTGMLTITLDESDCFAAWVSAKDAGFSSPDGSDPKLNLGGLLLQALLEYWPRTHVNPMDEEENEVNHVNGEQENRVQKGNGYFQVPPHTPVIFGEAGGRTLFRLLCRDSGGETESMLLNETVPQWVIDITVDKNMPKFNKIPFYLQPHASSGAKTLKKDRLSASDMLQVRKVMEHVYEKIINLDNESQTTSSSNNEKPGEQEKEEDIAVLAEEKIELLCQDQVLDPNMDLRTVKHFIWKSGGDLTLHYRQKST
row,Compound,pIC50
1,"CC(C)c1ccccc1-c1ncc2[nH]c(=O)n([C@H](CO)c3ccc(F)cc3)c2n1 [Compound I-180, (S)-9-(1-(4-fluorophenyl)-2-hydroxyethyl)-2-(2-isopropylphenyl)-7,9-dihydro-8H-purin-8-one]",6.70 to 7.30
2,"CC(C)c1ccccc1-c1ncc2[nH]c(=O)n([C@H](CO)c3ccccc3)c2n1 [Compound I-181, (S)-9-(2-hydroxy-1-phenylethyl)-2-(2-isopropylphenyl)-7,9-dihydro-8H-purin-8-one]",5.70 to 6.70
3,"CC(C)c1ccccc1-c1ncc2[nH]c(=O)n(Cc3ccc4c(c3)ncn4C)c2n1 [Compound I-182, 2-(2-isopropylphenyl)-9-((1-methyl-1H-benzo[d]imidazol-5-yl)methyl)-7,9-dihydro-8H-purin-8-one]",< 5.70
4,"CC(C)c1ccccc1-c1ncc2[nH]c(=O)n(Cc3ccc(S(C)(=O)=O)cc3)c2n1 [Compound I-183, 2-(2-isopropylphenyl)-9-(4-(methylsulfonyl)benzyl)-7,9-dihydro-8H-purin-8-one]",< 5.70
5,"Cc1ccnn1-c1ccc(Cn2c(=O)[nH]c3cnc(-c4ccccc4C(C)C)nc32)cc1 [Compound I-184, 2-(2-isopropylphenyl)-9-(4-(5-methyl-1H-pyrazol-1-yl)benzyl)-7,9-dihydro-8H-purin-8-one]",> 7.30
6,"Cc1cnnn1-c1ccc(Cn2c(=O)[nH]c3cnc(-c4ccccc4C(C)C)nc32)cc1 [Compound I-185, 2-(2-isopropylphenyl)-9-(4-(5-methyl-1H-1,2,3-triazol-1-yl)benzyl)-7,9-dihydro-8H-purin-8-one]",> 7.30
7,"CC(C)c1ccccc1-c1ncc2[nH]c(=O)n(Cc3ccc4c(c3)CN(C)C4=O)c2n1 [Compound I-186, 2-(2-isopropylphenyl)-9-((2-methyl-1-oxoisoindolin-5-yl)methyl)-7,9-dihydro-8H-purin-8-one]",6.70 to 7.30
8,"CC(C)c1ccccc1-c1ncc2[nH]c(=O)n(Cc3ccc4c(c3)CCN(C)C4=O)c2n1 [Compound I-187, 6-((2-(2-isopropylphenyl)-8-oxo-7,8-dihydro-9H-purin-9-yl)methyl)-2-methyl-3,4-dihydroisoquinolin-1(2H)-one]",> 7.30
9,"Cc1nc(-c2ccc(Cn3c(=O)[nH]c4cnc(-c5cccc(F)c5C(C)C)nc43)cc2)no1 [Compound I-188, 2-(3-fluoro-2-isopropylphenyl)-9-(4-(5-methyl-1,2,4-oxadiazol-3-yl)benzyl)-7,9-dihydro-8H-purin-8-one]",> 7.30
10,"Cc1nnc(-c2ccc(Cn3c(=O)[nH]c4cnc(-c5cccc(F)c5C(C)C)nc43)cc2)o1 [Compound I-189, 2-(3-fluoro-2-isopropylphenyl)-9-(4-(5-methyl-1,3,4-oxadiazol-2-yl)benzyl)-7,9-dihydro-8H-purin-8-one]",> 7.30
11,"Cc1cc(C)n(-c2ccc([C@@H](C)n3c(=O)[nH]c4cnc(-c5ccccc5C(C)C)nc43)cc2)n1 [Compound I-190, (R)-9-(1-(4-(3,5-dimethyl-1H-pyrazol-1-yl)phenyl)ethyl)-2-(2-isopropylphenyl)-7,9-dihydro-8H-purin-8-one]",> 7.30
12,"Cc1cc(C)n(-c2ccc([C@H](C)n3c(=O)[nH]c4cnc(-c5ccccc5C(C)C)nc43)cc2)n1 [Compound I-191, (S)-9-(1-(4-(3,5-dimethyl-1H-pyrazol-1-yl)phenyl)ethyl)-2-(2-isopropylphenyl)-7,9-dihydro-8H-purin-8-one]",> 7.30
13,"CC(C)c1ccccc1-c1ncc2[nH]c(=O)n(Cc3ccc(-c4nc(C(F)(F)F)cn4C4COC4)cc3)c2n1 [Compound I-192, 2-(2-isopropylphenyl)-9-(4-(1-(oxetan-3-yl)-4-(trifluoromethyl)-1H-imidazol-2-yl)benzyl)-7,9-dihydro-8H-purin-8-one]",> 7.30
14,"CC(C)c1c(F)cccc1-c1ncc2[nH]c(=O)n(Cc3ccc(-c4nc(C(F)(F)F)cn4C)cc3)c2n1 [Compound I-193, 2-(3-fluoro-2-isopropylphenyl)-9-(4-(1-methyl-4-(trifluoromethyl)-1H-imidazol-2-yl)benzyl)-7,9-dihydro-8H-purin-8-one]",> 7.30
15,"Cc1cc(C(F)(F)F)nn1-c1ccc(Cn2c(=O)[nH]c3cnc(-c4ccccc4C(C)C)nc32)cc1 [Compound I-194, 2-(2-isopropylphenyl)-9-(4-(5-methyl-3-(trifluoromethyl)-1H-pyrazol-1-yl)benzyl)-7,9-dihydro-8H-purin-8-one]",> 7.30
16,"Cc1cc(C(F)(F)F)n(-c2ccc(Cn3c(=O)[nH]c4cnc(-c5ccccc5C(C)C)nc43)cc2)n1 [Compound I-195, 2-(2-isopropylphenyl)-9-(4-(3-methyl-5-(trifluoromethyl)-1H-pyrazol-1-yl)benzyl)-7,9-dihydro-8H-purin-8-one]",> 7.30
17,"CC(C)c1ccccc1-c1ncc2[nH]c(=O)n(Cc3ccc(-n4ccc(C#N)n4)cc3)c2n1 [Compound I-196, 1-(4-((2-(2-isopropylphenyl)-8-oxo-7,8-dihydro-9H-purin-9-yl)methyl)phenyl)-1H-pyrazole-3-carbonitrile]",> 7.30

row,Compound,pIC50
1,"CC(C)c1ccccc1-c1ncc2[nH]c(=O)n(Cc3cccc(-n4cccn4)c3)c2n1 [Compound I-197, 9-(3-(1H-pyrazol-1-yl)benzyl)-2-(2-isopropylphenyl)-7,9-dihydro-8H-purin-8-one]",6.70 to 7.30
2,"CC(C)c1ccccc1-c1ncc2[nH]c(=O)n(Cc3ccc(-c4nc(Cl)cn4C)cc3)c2n1 [Compound I-198, 9-(4-(4-chloro-1-methyl-1H-imidazol-2-yl)benzyl)-2-(2-isopropylphenyl)-7,9-dihydro-8H-purin-8-one]",> 7.30
3,"CC(C)c1ccccc1-c1ncc2[nH]c(=O)n(Cc3ccc(-n4nc(C#N)cc4C#N)cc3)c2n1 [Compound I-199, 1-(4-((2-(2-isopropylphenyl)-8-oxo-7,8-dihydro-9H-purin-9-yl)methyl)phenyl)-1H-pyrazole-3,5-dicarbonitrile]",> 7.30
4,"Cc1nc(-c2ccc(Cn3c(=O)[nH]c4cnc(-c5ccccc5C(C)C)nc43)cc2)c(C)o1 [Compound I-200, 9-(4-(2,5-dimethyloxazol-4-yl)benzyl)-2-(2-isopropylphenyl)-7,9-dihydro-8H-purin-8-one]",> 7.30
5,"CC(C)c1c(F)cccc1-c1ncc2[nH]c(=O)n(Cc3ccc(-c4nc(C(F)(F)F)cn4C4COC4)cc3)c2n1 [Compound I-201, 2-(3-fluoro-2-isopropylphenyl)-9-(4-(1-(oxetan-3-yl)-4-(trifluoromethyl)-1H-imidazol-2-yl)benzyl)-7,9-dihydro-8H-purin-8-one]",> 7.30
6,"Cc1cn(C2COC2)c(-c2ccc(Cn3c(=O)[nH]c4cnc(-c5cccc(F)c5C(C)C)nc43)cc2)n1 [Compound I-202, 2-(3-fluoro-2-isopropylphenyl)-9-(4-(4-methyl-1-(oxetan-3-yl)-1H-imidazol-2-yl)benzyl)-7,9-dihydro-8H-purin-8-one]",> 7.30
7,"Cc1cn(C)c(-c2ccc(Cn3c(=O)[nH]c4cnc(-c5ccccc5C(C)C)nc43)cn2)n1 [Compound I-203, 9-((6-(1,4-dimethyl-1H-imidazol-2-yl)pyridin-3-yl)methyl)-2-(2-isopropylphenyl)-7,9-dihydro-8H-purin-8-one]",> 7.30
8,"COc1ccn(-c2ccc(Cn3c(=O)[nH]c4cnc(-c5ccccc5C(C)C)nc43)cc2)n1 [Compound I-204, 2-(2-isopropylphenyl)-9-(4-(3-methoxy-1H-pyrazol-1-yl)benzyl)-7,9-dihydro-8H-purin-8-one]",> 7.30
9,"CC(C)c1ccccc1-c1ncc2[nH]c(=O)n(Cc3ccc(-n4c(=O)ccn4C)cc3)c2n1 [Compound I-205, 2-(2-isopropylphenyl)-9-(4-(2-methyl-5-oxo-2,5-dihydro-1H-pyrazol-1-yl)benzyl)-7,9-dihydro-8H-purin-8-one]",6.70 to 7.30
10,"COc1ccnn1-c1ccc(Cn2c(=O)[nH]c3cnc(-c4ccccc4C(C)C)nc32)cc1 [Compound I-206, 2-(2-isopropylphenyl)-9-(4-(5-methoxy-1H-pyrazol-1-yl)benzyl)-7,9-dihydro-8H-purin-8-one]",> 7.30
11,"Cc1cc(C#N)nn1-c1ccc(Cn2c(=O)[nH]c3cnc(-c4ccccc4C(C)C)nc32)cc1 [Compound I-207, 1-(4-((2-(2-isopropylphenyl)-8-oxo-7,8-dihydro-9H-purin-9-yl)methyl)phenyl)-5-methyl-1H-pyrazole-3-carbonitrile]",> 7.30
12,"Cc1cc(C#N)n(-c2ccc(Cn3c(=O)[nH]c4cnc(-c5ccccc5C(C)C)nc43)cc2)n1 [Compound I-208, 1-(4-((2-(2-isopropylphenyl)-8-oxo-7,8-dihydro-9H-purin-9-yl)methyl)phenyl)-3-methyl-1H-pyrazole-5-carbonitrile]",> 7.30
13,"CC(C)c1ccccc1-c1ncc2[nH]c(=O)n(Cc3ccc(-c4nc(C(F)(F)F)nn4C)cc3)c2n1 [Compound I-209, 2-(2-isopropylphenyl)-9-(4-(1-methyl-3-(trifluoromethyl)-1H-1,2,4-triazol-5-yl)benzyl)-7,9-dihydro-8H-purin-8-one]",> 7.30
14,"Cc1cc(Cl)nn1-c1ccc(Cn2c(=O)[nH]c3cnc(-c4ccccc4C(C)C)nc32)cc1 [Compound I-210, 9-(4-(3-chloro-5-methyl-1H-pyrazol-1-yl)benzyl)-2-(2-isopropylphenyl)-7,9-dihydro-8H-purin-8-one]",> 7.30
15,"Cc1cc(Cl)n(-c2ccc(Cn3c(=O)[nH]c4cnc(-c5ccccc5C(C)C)nc43)cc2)n1 [Compound I-211, 9-(4-(5-chloro-3-methyl-1H-pyrazol-1-yl)benzyl)-2-(2-isopropylphenyl)-7,9-dihydro-8H-purin-8-one]",> 7.30
16,"Cc1cc(C)n([C@H]2CC[C@@H](Cn3c(=O)[nH]c4cnc(-c5ccccc5C(C)C)nc43)CC2)n1 [Compound I-212, 9-(((1s,4s)-4-(3,5-dimethyl-1H-pyrazol-1-yl)cyclohexyl)methyl)-2-(2-isopropylphenyl)-7,9-dihydro-8H-purin-8-one]",> 7.30
